In patent US10383831B2, “2,4,6-trialkoxystryl aryl sulfones, sulfonamides and carboxamides, and methods of preparation and use” (Temple University—Of The Commonwealth System Of Higher …, priority 2015, dated 2019):

Columns and labels:
[1] = test system: DU145 (prostate cancer); assay: Cytotoxicity assay, DU145 tumor cells; type: cell-based; conditions: Homo sapiens, DU-145, 96 hours treatment
Experimental: (§1) The effect of the compounds of the invention on tumor cells was determined by the assay described by Latham et al., Oncogene 12:827-837 (1996). Tumor cells K562 (chronic myelogenous leukaemia) or DU145 (prostate cancer) were plated in 12-well dishes at a cell density of 2.5×10^4 cells well. The plated cells were treated 24 hours later with a compound of the invention dissolved in DMSO at multiple concentrations ranging from 0.001 to 10 μM. The plates were examined 96 hours later under an inverted microscope, Olympus CK-2 using a 10× objective, and compound activity was noted by physical observation. When necessary, the total number of viable cells was determined by trypsinizing the wells and counting the number of viable cells, as determined by trypan blue exclusion, using a hemacytometer.

[2] = test system: K562 (chronic myelogenous leukaemia); assay: Cytotoxicity assay, K562 tumor cells; type: cell-based; conditions: Homo sapiens, 96 hours treatment
Experimental: as §1

Structure (SMILES) | IC50 [1] [µM] | IC50 [2] [µM]
COc1cc(OC)c(/C=C/S(=O)(=O)Cc2ccc(OC)c(N/C=C\C(C)=O)c2)c(OC)c1 [Ex. 2, (Z)-4-((2-Methoxy-5-(((E)-2,4,6-trimethoxystyrylsulfonyl)methyl)phenyl)amino)but-3-en-2-one] | 0.1 | 0.1
COC(=O)/C=C\Nc1cc(CS(=O)(=O)/C=C/c2c(OC)cc(OC)cc2OC)ccc1OC [Ex. 3, (Z)-methyl 3-((2-methoxy-5-(((E)-2,4,6-trimethoxystyrylsulfonyl)methyl)phenyl)amino) acrylate] | 0.004 | 0.004
COc1ccc(C(=O)/C=C\Nc2cc(CS(=O)(=O)/C=C/c3c(OC)cc(OC)cc3OC)ccc2OC)cc1 [Ex. 4, (Z)-1-(4-methoxyphenyl)-3-((2-methoxy-5-(((E)-2,4,6-trimethoxystyrylsulfonyl)methyl)phenyl)amino)prop-2-en-1-one] | 0.05 | 0.05
COc1cc(OC)c(/C=C/S(=O)(=O)Cc2ccc(OC)c(N/C=C\C(=O)c3cc(OC)c(OC)c(OC)c3)c2)c(OC)c1 [Ex. 5, (Z)-1-(3,4,5-trimethoxyphenyl)-3-((2-methoxy-5-(((E)-2,4,6-trimethoxystyrylsulfonyl)methyl)phenyl)amino) prop-2-en-1-one] | 0.009 | 
COc1cc(OC)c(/C=C/S(=O)(=O)Cc2ccc(OC)c(N/C=C\C(=O)c3cc(OC)c(OC)c(OC)c3Cl)c2)c(OC)c1 [Ex. 7, (Z)-1-(2-chloro-3,4,5-trimethoxyphenyl)-3-((2-methoxy-5-(((E)-2,4,6-trimethoxystyrylsulfonyl)methyl)phenyl)amino)prop-2-en-1-one] | 0.05 | 0.05
COc1cc(OC)c(/C=C/S(=O)(=O)Cc2ccc(OC)c(N/C=C\C(=O)c3cc(OC)c(OC)c(OC)c3Br)c2)c(OC)c1 [Ex. 8, (Z)-1-(2-bromo-3,4,5-trimethoxyphenyl)-3-((2-methoxy-5-(((E)-2,4,6-trimethoxystyrylsulfonyl)methyl)phenyl)amino)prop-2-en-1-one] | 0.075 | 0.075
C#CCN(CC#C)c1cc(CS(=O)(=O)/C=C/c2c(OC)cc(OC)cc2OC)ccc1OC [Ex. 161, (E)-2-methoxy-N,N-di(prop-2-yn-1-yl)-5-(((2,4,6-trimethoxystyryl)sulfonyl)-methyl)aniline] | 2.5 | 2.5
COc1cc(OC)c(/C=C/S(=O)(=O)Cc2ccc(OC)c(NC(=O)/C=C\C(=O)O)c2)c(OC)c1 [Ex. 171, (Z)-4-((2-methoxy-5-(((E)-2,4,6-trimethoxystyrylsulfonyl)methyl)phenyl)amino)-4-oxobut-2-enoic acid] | 2 | 2
COC(=O)/C=C\C(=O)Nc1cc(CS(=O)(=O)/C=C/c2c(OC)cc(OC)cc2OC)ccc1OC [Ex. 176, (Z)-methyl 4-((2-methoxy-5-(((E)-2,4,6-trimethoxystyrylsulfonyl)methyl)phenyl)amino)-4-oxobut-2-enoate] | 2 | 0.25
CCOC(=O)/C=C/CNc1cc(CS(=O)(=O)/C=C/c2c(OC)cc(OC)cc2OC)ccc1OC [Ex. 181, (E)-Ethyl 4-((2-methoxy-5-(((E)-2,4,6-trimethoxystyrylsulfonyl)methyl)phenyl)amino)but-2-enoate] | 0.25 | 0.25
COc1cc(OC)c(/C=C/S(=O)(=O)Cc2ccc(OC)c(NC(=O)/C=C/C(=O)O)c2)c(OC)c1 [Ex. 186, (E)-4-((2-methoxy-5-(((E)-2,4,6-trimethoxystyrylsulfonyl)methyl)phenyl)amino)-4-oxobut-2-enoic acid] | 2 | 2
CCOC(=O)C(=CNc1cc(CS(=O)(=O)/C=C/c2c(OC)cc(OC)cc2OC)ccc1OC)C(=O)OCC [Ex. 191, (E)-diethyl-2-(((2-methoxy-5-(((2,4,6-trimethoxystyryl)sulfonyl)methyl)phenyl)-amino)methylene)malonate] | 2 | 2
